Reference: patent EP4685142A1, “TRIAZINE COMPOUND AND USE THEREOF” (Chengdu Zenitar Biomedical Technology Co., Ltd., priority 2023, dated 2024)
Read-outs that look alike come from different tables or passages of the source.

How the values were obtained:
NLRP3 inflammasome = target: T1, NLRP3 inflammasome (Homo sapiens, UniProt Q96P20); test: Inhibitory activity of NLRP3 inflammasome in human monocytes (THP-1 cells, LPS + Nigericin, IL-1β ELISA); assay type: cell-based
T1 construct: host or cells: THP-1 cells
T1 sequence (Q96P20 whole entry): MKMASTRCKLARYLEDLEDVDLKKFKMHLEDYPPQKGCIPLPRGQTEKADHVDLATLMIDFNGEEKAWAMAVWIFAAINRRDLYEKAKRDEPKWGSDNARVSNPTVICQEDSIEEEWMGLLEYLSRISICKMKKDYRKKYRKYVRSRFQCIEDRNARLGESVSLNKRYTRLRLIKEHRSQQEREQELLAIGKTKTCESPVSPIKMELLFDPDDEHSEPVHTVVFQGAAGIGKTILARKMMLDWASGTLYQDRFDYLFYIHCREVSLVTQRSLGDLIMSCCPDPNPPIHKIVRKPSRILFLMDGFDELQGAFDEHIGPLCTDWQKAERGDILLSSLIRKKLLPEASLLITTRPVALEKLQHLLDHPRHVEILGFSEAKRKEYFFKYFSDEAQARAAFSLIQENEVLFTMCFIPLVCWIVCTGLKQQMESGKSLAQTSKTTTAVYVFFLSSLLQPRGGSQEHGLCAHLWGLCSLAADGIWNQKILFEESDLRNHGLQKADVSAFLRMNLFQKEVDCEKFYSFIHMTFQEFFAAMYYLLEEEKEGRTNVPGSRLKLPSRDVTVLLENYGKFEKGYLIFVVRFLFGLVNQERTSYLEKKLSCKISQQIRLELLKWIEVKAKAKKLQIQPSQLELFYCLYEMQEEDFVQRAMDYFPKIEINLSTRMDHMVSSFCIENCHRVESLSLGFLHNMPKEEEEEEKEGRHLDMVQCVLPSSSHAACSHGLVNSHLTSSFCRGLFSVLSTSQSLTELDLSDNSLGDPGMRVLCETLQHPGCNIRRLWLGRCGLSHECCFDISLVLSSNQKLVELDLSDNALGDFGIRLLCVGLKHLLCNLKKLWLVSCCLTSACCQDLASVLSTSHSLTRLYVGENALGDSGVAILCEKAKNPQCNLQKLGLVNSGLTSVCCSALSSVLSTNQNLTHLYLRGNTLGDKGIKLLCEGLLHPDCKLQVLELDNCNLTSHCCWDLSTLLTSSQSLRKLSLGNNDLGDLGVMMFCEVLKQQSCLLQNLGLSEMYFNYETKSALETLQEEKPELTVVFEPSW
Method in brief: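 THP-1 cells differentiated overnight with 10 µM PMA at 37°C and 5% CO2, then primed 3 h with 1 µg/mL LPS in Opti-MEM. Compound applied for 40 min, followed by 40 min with 10 µM nigericin. IL-1β in supernatant measured by ELISA.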

[1] = test system: IL-1β in human PBMC cells; test: Inhibitory activity on IL-1β in human PBMC cells (LPS + Nigericin, ELISA); assay type: cell-based; conditions: Homo sapiens, PBMC
Description: 2. Determination of inhibitory activity of compounds on IL-1β in human PBMC cells
Human peripheral blood mononuclear cells (PBMCs) were taken and cultured overnight in RPMI 1640 culture medium containing 10% FBS and antibiotics before stimulation. On the second day, the culture medium was replaced with a serum-reduced culture medium, the grown cells were stimulated for 3 h with LPS at a working concentration of 1 µg/mL, stimulated for 40 min with a drug, and then stimulated for 40 min with Nigericin at a concentration of 10 µM, the cell supernatant was harvested, and the yield of IL-1β was detected by ELISA.
The experimental results are shown in Table 3: Table 3 Inhibitory effect of compounds on IL-1β in PBMC cells

[2] = Pharmacokinetic evaluation in Balb/c mice; assay type: in vivo
Text: 4. Pharmacokinetic evaluation of compounds in Balb/c mice
Experimental purpose: to understand pharmacokinetic properties of the compounds.
Experimental basis: Technical Guidelines for Nonclinical Pharmacokinetic Studies of Chemical Drugs, 2014.
Experimental protocol: the pharmacokinetic properties of the compounds were investigated via intravenous administration and intragastric administration in Balb/c mice.
The blood drug concentration was quantitatively analyzed by LC-MS/MS, and pharmacokinetic parameters were calculated, such as peak concentration (Cmax), area under the concentration-time curve (AUC(0-t)), half-life (T1/2), clearance (CL), volume of distribution at steady state (Vdss), and bioavailability (F).
The results of pharmacokinetic evaluation are shown in Table 5 below: Table 5 Pharmacokinetic test results of compounds in Balb/c mice

LPS-induced mice = test: LPS-induced mouse model, survival; assay type: in vivo, Balb/c mice; conditions: for 72h Survival rate: 1 h before 10 mg/kg LPS i.p.
[3] = target: T2, hERG potassium ion channel (Homo sapiens, UniProt Q12809)
T2 sequence (Q12809 whole entry): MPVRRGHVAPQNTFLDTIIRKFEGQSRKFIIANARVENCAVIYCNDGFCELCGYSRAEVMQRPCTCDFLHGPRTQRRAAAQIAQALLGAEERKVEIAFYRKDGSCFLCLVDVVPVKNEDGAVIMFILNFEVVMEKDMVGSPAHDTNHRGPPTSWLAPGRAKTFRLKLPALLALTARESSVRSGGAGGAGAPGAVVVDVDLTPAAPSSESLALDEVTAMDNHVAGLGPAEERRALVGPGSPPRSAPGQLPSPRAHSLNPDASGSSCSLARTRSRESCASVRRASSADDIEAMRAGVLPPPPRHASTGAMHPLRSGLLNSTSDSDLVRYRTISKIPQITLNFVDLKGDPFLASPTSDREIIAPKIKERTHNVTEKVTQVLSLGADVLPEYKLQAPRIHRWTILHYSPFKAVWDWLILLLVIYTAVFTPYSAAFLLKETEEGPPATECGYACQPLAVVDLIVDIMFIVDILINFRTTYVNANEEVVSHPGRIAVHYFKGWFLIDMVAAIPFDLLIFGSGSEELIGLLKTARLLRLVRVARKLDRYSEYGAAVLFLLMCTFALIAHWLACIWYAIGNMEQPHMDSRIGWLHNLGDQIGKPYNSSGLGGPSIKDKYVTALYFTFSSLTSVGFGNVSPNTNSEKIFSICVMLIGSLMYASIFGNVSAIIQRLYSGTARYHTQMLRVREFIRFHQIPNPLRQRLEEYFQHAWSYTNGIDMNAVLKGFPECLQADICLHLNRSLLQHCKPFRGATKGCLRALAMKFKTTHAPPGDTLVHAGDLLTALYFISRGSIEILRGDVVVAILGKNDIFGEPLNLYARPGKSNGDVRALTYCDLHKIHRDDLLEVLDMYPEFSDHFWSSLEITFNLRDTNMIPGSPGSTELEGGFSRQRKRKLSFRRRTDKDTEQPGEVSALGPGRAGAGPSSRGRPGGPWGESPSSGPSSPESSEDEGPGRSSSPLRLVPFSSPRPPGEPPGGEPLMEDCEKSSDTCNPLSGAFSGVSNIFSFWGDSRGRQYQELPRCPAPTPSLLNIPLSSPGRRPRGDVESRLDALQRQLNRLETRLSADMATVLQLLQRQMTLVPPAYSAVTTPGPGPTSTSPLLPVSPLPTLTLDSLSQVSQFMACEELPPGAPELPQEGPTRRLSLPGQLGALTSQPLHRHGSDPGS

[4] = In vivo brain-to-plasma ratio in mice; conditions: for Brain / Plasma: male mice, oral 10 mg/kg
Description: Evaluation of in vivo brain-to-plasma ratio of compound
Experimental purpose: to obtain the brain-to-plasma ratio of the compound
Experimental protocol: the brain-to-plasma ratio of the compound was investigated by monitoring the content of the compound in mouse brain and plasma.
Experimental procedure: the compound was weighed, followed by adding a small amount of DMSO and adding a sodium chloride solution for injection, to prepare a 10 mg · mL^-1 compound solution for administration. Male mice were orally administered at 10 mg · kg^-1, and whole plasma and whole brain tissue were sampled at 1 h and 6 h after administration (n=3). […] A centrifuge tube was weighed as M1, the centrifuge tube containing the whole brain tissue was weighed as M2, the centrifuge tube containing water for homogenization was weighed as M3, and the centrifuge tube after the removal of 30 µL homogenate was weighed as M4.
Standard curve range: 10-10,000 ng·mL^-1. Content of drug in brain = measured value × 0.03 × (M3−M1)/[(M2−M1)×(M3−M4)].

[5] = In vivo distribution of cerebrospinal fluid and plasma; conditions: for Cerebrospinal fluid / Plasma: intravenous 5 mg/kg, n=1; for concentration at 0.25 h / concentration at 2 h: male, mouse, iv, 5 mg/kg
Description: Evaluation of in vivo distribution of cerebrospinal fluid and plasma after compound administration
Experimental procedure: the compound was weighed, followed by adding a small amount of DMSO and then adding a sodium chloride solution for injection, to prepare a 5 mg·mL^-1 compound solution for administration. […] Standard curve range: 1-1000 ng·mL^-1.

[6] = target: T2, hERG potassium ion channel; test: Inhibition of hERG potassium ion channel (CHO cells stably expressing hERG, Qpatch)
human NLRP3 protein = human NLRP3 protein (Homo sapiens, UniProt Q96P20); test: Affinity for human NLRP3 protein (Biacore T200, CM5 chip); assay type: binding; conditions: protein immobilized on CM5 chip, 25°C
Chain of human NLRP3 protein (Q96P20 whole entry): as the sequence (Q96P20 whole entry) above

[7] = 50 mg/kg, First cage (6 mice for Compound 3, 5 mice for Compound 4)
[8] = 50 mg/kg, Second cage (6 mice for Compound 3, 5 mice for Compound 4)
[9] = male, Balb/c, mouse, in vivo, po, 5 mg/kg
[10] = male, mouse, brain/plasma, po, 10 mg/kg
[11] = male, mouse, plasma, po, 10 mg/kg

## CCN1CCC[C@@H](Nc2nnc(-c3ccc4sccc4c3O)n(C)c2=O)C1 [Compound 3, (R)-6-((1-ethylpiperidin-3-yl)amino)-3-(4-hydroxybenzo[b]thiophen-5-yl)-4-methyl-1,2,4-tria zin-5(4H)-ketone]
NLRP3 inflammasome
  IC50: 2.11 nM
[1]
  IC50: 1.23 nM
[2]; 5 mg/kg PO vs 5 mg/kg IV, Balb/c mice
  F: 81.05%
[2]; mouse, in vivo, 5 mg/kg, IV, Balb/c mice
  clearance: 9.67 mL/min/kg
[2]; mouse, in vivo, 5 mg/kg, IV, Balb/c mice, read-out: AUC(0-t)
  AUC(0-t): 8300 ng·h/mL
[2]; mouse, in vivo, 5 mg/kg, IV, Balb/c mice, read-out: Cmax
  Cmax: 1990 ng/mL
[2]; mouse, in vivo, 5 mg/kg, IV, Balb/c mice, read-out: T1/2 (converted)
  half-life: 5.4 h
[2]; mouse, in vivo, 5 mg/kg, IV, Balb/c mice, read-out: Vdss
  Vd: 4.51 L/kg
[2]; mouse, in vivo, 5 mg/kg, PO, Balb/c mice, read-out: AUC(0-t)
  AUC(0-t): 6730 ng·h/mL
[2]; mouse, in vivo, 5 mg/kg, PO, Balb/c mice, read-out: Cmax
  Cmax: 1010 ng/mL
[2]; mouse, in vivo, 5 mg/kg, PO, Balb/c mice, read-out: T1/2 (converted)
  half-life: 4.9 h
LPS-induced mice; 25 mg/kg oral
  72h Survival rate: 90%
LPS-induced mice; 25 mg/kg, First cage (5 mice)
  survival status of mice (mice alive) 12h: 5
  survival status of mice (mice alive) 24h: 5
  survival status of mice (mice alive) 36h: 5
  survival status of mice (mice alive) 48h: 4
  survival status of mice (mice alive) 72h: 4
LPS-induced mice; 25 mg/kg, Second cage (5 mice)
  survival status of mice (mice alive) 12h: 5
  survival status of mice (mice alive) 24h: 5
  survival status of mice (mice alive) 36h: 5
  survival status of mice (mice alive) 48h: 5
  survival status of mice (mice alive) 72h: 5
LPS-induced mice; 50 mg/kg oral
  72h Survival rate: 92%
LPS-induced mice; [7]
  survival status of mice (mice alive) 12h: 6
  survival status of mice (mice alive) 24h: 6
  survival status of mice (mice alive) 36h: 6
  survival status of mice (mice alive) 48h: 6
  survival status of mice (mice alive) 72h: 6
LPS-induced mice; [8]
  survival status of mice (mice alive) 12h: 6
  survival status of mice (mice alive) 24h: 6
  survival status of mice (mice alive) 36h: 5
  survival status of mice (mice alive) 48h: 5
  survival status of mice (mice alive) 72h: 5
[3]
  inhibitory effects on the hERG potassium ion channel (conclusion in words): Conclusion: compounds 3, 4, 5, 9, 16, 17, 24, 30, 40, 41, 42, 43, 54 and others have weak inhibitory effects on the hERG potassium ion channel, having weaker inhibitory effect than the reference compound Ref-1.
[4]; 1 h
  Brain: 761 ng/g
  Plasma: 2082 ng/mL
[4]; 6 h
  Brain: 104 ng/g
  Plasma: 312 ng/mL
[4]; mouse, brain, po, 10 mg/kg
  Kp at 1 h: 0.36
  Kp at 6 h: 0.33
[5]; 0.25h
  Cerebrospinal fluid: 79 ng/g
  Plasma: 781 ng/mL
[5]; 2h
  Cerebrospinal fluid: 15 ng/g
  Plasma: 185 ng/mL
[6]
  20 uM Inhibition ratio: 38.23%

## CN1C[C@H](F)C[C@@H](Nc2nnc(-c3ccc4sccc4c3O)n(C)c2=O)C1 [Compound 40]
NLRP3 inflammasome; THP-1 cells, PMA, LPS 1 µg/mL 3 h, drug 40 min, Nigericin 10 µM 40 min, IL-1β ELISA, read-out: IC50
  IC50: 2.97 nM
[2]; [9]
  AUC(0-t): 40400 ng·h/mL
  Cmax: 15000 ng/mL
  half-life: 2.86 h
LPS-induced mice; 25 mg/kg oral
  72h Survival rate: 90%
LPS-induced mice; 25 mg/kg, First cage (5 mice)
  survival status of mice (mice alive) 12h: 5
  survival status of mice (mice alive) 24h: 5
  survival status of mice (mice alive) 36h: 5
  survival status of mice (mice alive) 48h: 5
  survival status of mice (mice alive) 72h: 5
LPS-induced mice; 25 mg/kg, Second cage (5 mice)
  survival status of mice (mice alive) 12h: 5
  survival status of mice (mice alive) 24h: 5
  survival status of mice (mice alive) 36h: 5
  survival status of mice (mice alive) 48h: 4
  survival status of mice (mice alive) 72h: 4
Human NLRP3 protein
  Kd: 62.1 nM
[3]; human
  inhibitory effects on the hERG potassium ion channel (conclusion in words): Conclusion: compounds 3, 4, 5, 9, 16, 17, 24, 30, 40, 41, 42, 43, 54 and others have weak inhibitory effects on the hERG potassium ion channel, having weaker inhibitory effect than the reference compound Ref-1.
[4]; 1 h
  Brain: 1350 ng/g
[4]; 6 h
  Brain: 199 ng/g
[4]; [10]
  Kp at 1 h: 0.19
  Kp at 6 h: 0.14
[4]; [11]
  concentration at 1 h: 7240 ng/mL
  concentration at 6 h: 1460 ng/mL
[5]; cerebrospinal fluid
  concentration at 0.25 h: 191 ng/g
  concentration at 2 h: 0.51 ng/g
[5]; plasma
  concentration at 0.25 h: 5030 ng/mL
  concentration at 2 h: 826 ng/mL
[6]
  20 uM Inhibition ratio: 3.48%
